Data from patent US11779613B2, “Compositions comprising a bacterial strain of the genus Megasphera and uses thereof” (CJ BIOSCIENCE, INC., priority 2017, dated 2023).

Assays:
histone deacetylase [1] = assay: Histone deacetylase activity in HT-29 whole cells; type: cell-based; conditions: for total HDAC activity, pure substances: different concentrations, whole HT-29 cells and HT-29 cell lysate, FIG. 16B
Protocol: The cell line HT-29 was used because histone deacetylase is present.
Cell free supernatants of stationary phase bacterial cultures were isolated by centrifugation and filtering in a 0.22 uM filter. HT-29 cells were used 3 days' post confluence and stepped down in 1 mL DTS 24 hours prior to commencement of the experiment. The HT-29 cells were challenged with 10% cell free supernatant diluted in DTS and was is left to incubate for 48 hours. […] extraction kit and samples were snap frozen prior to HDAC activity measurement. HDAC activity was assessed fluorometrically using the Sigma Aldrich (UK) kit.
(§1) Pure cultures of bacteria were grown anaerobically in YCFA broth until they reached their stationary growth phase. Cultures were centrifuged at 5,000×g for 5 minutes and the cell-free supernatant (CFS) was filtered using a […] (Millipore, UK). 1 mL aliquots of the CFS were stored at −80° C. until use. Sodium butyrate, hexanoic and valeric acid were obtained from Sigma Aldrich (UK) and suspensions were prepared in YCFA broth.
(§2) To investigate which metabolites were responsible for the strain-induced HDAC inhibition, different concentrations of hexanoic acid, valeric acid and sodium butyrate were measured for their HDAC inhibition on whole HT-29 cells and on HT-29 cell lysate.

[2] = test system: SH-SY5Y neuroblastoma cells; assay: Cell viability / neuroprotection of SH-SY5Y neuroblastoma cells with or without MPP (CCK-8); type: cell-based, human; conditions: compared to YCFA-MPP+ treated sample, FIG. 15
Protocol: SH-SY5Y neuroblastoma cells were purchased from ECCACC (Cat. no: 94030304) and were grown in MEM (Sigma Aldrich, cat n. M2279) supplemented with Nutrient Mixture F-12 Ham (Sigma Aldrich, cat n. N4888).
Once grown the SH-SY5Y neuroblastoma cells were plated on 96-well plate at 11,000 cells/well and incubated for 2 days. The cells were then transferred to differentiation medium (which contains FBS at 1%) and 10 uM retinoic acid (Sigma Aldrich, cat. n. R2625-100MG). Differentiation medium was replaced every other day and cells were harvested at 7 day of differentiation. Cells were pre-treated with or without MPP (Sigma Aldrich, cat. n. D048-1G) for 8 hours. Subsequently, cells were treated with 10% bacterial supernatant and incubated overnight. Cell viability was measured by using CCK-8 reagent (Sigma Aldrich, Cell Counting Kit—8, cat. n. 96992-3000TESTS-F) and read at 450 nm wavelength.
RA-differentiated SHSY-5Y cells were treated with MPP+, the active metabolite of MPTP, a chemical widely used to mimic in vitro and in vivo some of the features of PD pathology. Cell viability was measured as the rate of mitochondria respiration (FIG. 15).

histone deacetylase [3] = assay: Histone deacetylase activity in HT-29 cell lysate; type: biochemical; conditions: FIG. 16A/16B
Protocol: as §1, §2

Row | Compound | total HDAC activity, pure substances (histone deacetylase [1]) | total HDAC activity, pure substances (histone deacetylase [1]; listed as Valeric acid) | protection from MPP+ [2] | HDAC inhibition, HT29 whole cells (histone deacetylase [1]; FIG. 16A/16B) | HDAC inhibition, HT29 cell lysates (histone deacetylase [3])
1 | CCCCC(=O)O [valeric acid] | significant HDAC inhibition | inhibited total HDAC activity |  |  | 
2 | O=c1c(O)c(-c2ccc(O)c(O)c2)oc2cc(O)cc(O)c12 [quercetin, Quercetin] |  |  | about 20% |  | 
3 | CCCCCC(=O)O [hexanoic acid] | did not show significant inhibitory activity |  |  |  | 
4 | CCCC(=O)[O-].[Na+] [sodium butyrate, Sodium butyrate] | significant HDAC inhibition |  |  | significant (P<0.05) inhibition | significant (P<0.05) inhibition
